This is an account of results in patent publication US11673897B2, “Compounds for the treatment of kinase-dependent disorders” (Exelixis, Inc., priority 2018, dated 2023).

The target of one test is Human Axl (Homo sapiens (Human), UniProt P30530, Q764R). Nature of the test: Human AXL kinase assay (33P radiometric, KinaseProfiler). It counts as biochemical. As to conditions: 10 μM ATP. The protocol:
(§1) Kinase activity and compound inhibition were investigated using the ^33P-Phosphoryl transfer radiometric kinase assay, performed using the KinaseProfiler™ service of Eurofins Pharma Discovery Services UK Limited. Dose-response experiments were performed using nine compound concentrations in a 96-well microtiter plate. For each assay, all compounds were prepared to a 50× final assay concentration (50 μM) in 100% DMSO, then diluted in a half-log series, with the final top concentration at 1 μM. This working stock of the compound was added to the assay well as the first component in the reaction, followed by the remaining components as detailed in the following assay protocols below. The positive control wells (100% kinase activity) contain all components of the reaction including 2% DMSO (control for solvent effects), except the compound of interest. Blank wells contain all components of the reaction, with the reference inhibitor, staurosporine. This reference compound was used to abolish kinase activity and generated the 0% kinase activity base-line. IC50 values were calculated by nonlinear regression analysis using the sigmoidal dose-response (variable slope) curve fit on XLFit version 5.3 (ID Business Solutions).
Human Axl (residues H473-A894 with Q764R, 161 nM) was incubated with 8 mM MOPS pH 7.0, 0.2 mM EDTA, 250 μM KKSRGDYMTMQIG (SEQ ID NO. 43), 10 mM magnesium acetate and 10 μM [γ-33P-ATP]. The reaction was initiated by the addition of the Mg/ATP mix. After incubation for 40 minutes at room temperature, the reaction was stopped by the addition of phosphoric acid to a concentration of 0.5%. A reaction aliquot of 10 μL was then spotted onto a P30 filtermat and washed four times for 4 minutes in 0.425% phosphoric acid and once in methanol prior to drying and scintillation counting. Incorporated ^33P was measured using the Wallac Microbeta scintillation counter (Perkin Elmer).

For a further test, the target named is AXL (Homo sapiens (Human), UniProt P30530). Nature of the test: AXL autophosphorylation ELISA in A-172 cells. As to conditions: cellular, Gas6-stimulated, phospho-AXL ELISA. It counts as cell-based. The gist of the method:
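A-172 glioblastoma cells, serum-starved 24 h, took compounds for 1 h (8-point curve, 0.3% DMSO) before 15 min stimulation with 1 μg/mL recombinant human Gas6. Lysate phospho-AXL measured by ELISA against a phospho-AXL standard, normalized to DMSO (100%) and reference inhibitor (0%); IC50 from 4-parameter logistic fit.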

For test [1], the target named is T1, Met (Homo sapiens (Human), UniProt P08581). Nature of the test: Met autophosphorylation ELISA in PC-3 cells. It counts as cell-based. Conditions: cellular, HGF-stimulated, phospho-Met ELISA, read-out: c-Met IC50. The gist of the method: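 PC-3 cells serum-starved 3 h were treated 1 h with an 8-point compound series (0.3% DMSO), then stimulated 10 min with 100 ng/mL human HGF. Phospho-Met (panTyr) in lysates was measured by sandwich ELISA against DMSO (100%) and reference-inhibitor (0%) controls, and IC50 came from a 4-parameter logistic fit.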
Target sequence in this assay (P08581 25-1390): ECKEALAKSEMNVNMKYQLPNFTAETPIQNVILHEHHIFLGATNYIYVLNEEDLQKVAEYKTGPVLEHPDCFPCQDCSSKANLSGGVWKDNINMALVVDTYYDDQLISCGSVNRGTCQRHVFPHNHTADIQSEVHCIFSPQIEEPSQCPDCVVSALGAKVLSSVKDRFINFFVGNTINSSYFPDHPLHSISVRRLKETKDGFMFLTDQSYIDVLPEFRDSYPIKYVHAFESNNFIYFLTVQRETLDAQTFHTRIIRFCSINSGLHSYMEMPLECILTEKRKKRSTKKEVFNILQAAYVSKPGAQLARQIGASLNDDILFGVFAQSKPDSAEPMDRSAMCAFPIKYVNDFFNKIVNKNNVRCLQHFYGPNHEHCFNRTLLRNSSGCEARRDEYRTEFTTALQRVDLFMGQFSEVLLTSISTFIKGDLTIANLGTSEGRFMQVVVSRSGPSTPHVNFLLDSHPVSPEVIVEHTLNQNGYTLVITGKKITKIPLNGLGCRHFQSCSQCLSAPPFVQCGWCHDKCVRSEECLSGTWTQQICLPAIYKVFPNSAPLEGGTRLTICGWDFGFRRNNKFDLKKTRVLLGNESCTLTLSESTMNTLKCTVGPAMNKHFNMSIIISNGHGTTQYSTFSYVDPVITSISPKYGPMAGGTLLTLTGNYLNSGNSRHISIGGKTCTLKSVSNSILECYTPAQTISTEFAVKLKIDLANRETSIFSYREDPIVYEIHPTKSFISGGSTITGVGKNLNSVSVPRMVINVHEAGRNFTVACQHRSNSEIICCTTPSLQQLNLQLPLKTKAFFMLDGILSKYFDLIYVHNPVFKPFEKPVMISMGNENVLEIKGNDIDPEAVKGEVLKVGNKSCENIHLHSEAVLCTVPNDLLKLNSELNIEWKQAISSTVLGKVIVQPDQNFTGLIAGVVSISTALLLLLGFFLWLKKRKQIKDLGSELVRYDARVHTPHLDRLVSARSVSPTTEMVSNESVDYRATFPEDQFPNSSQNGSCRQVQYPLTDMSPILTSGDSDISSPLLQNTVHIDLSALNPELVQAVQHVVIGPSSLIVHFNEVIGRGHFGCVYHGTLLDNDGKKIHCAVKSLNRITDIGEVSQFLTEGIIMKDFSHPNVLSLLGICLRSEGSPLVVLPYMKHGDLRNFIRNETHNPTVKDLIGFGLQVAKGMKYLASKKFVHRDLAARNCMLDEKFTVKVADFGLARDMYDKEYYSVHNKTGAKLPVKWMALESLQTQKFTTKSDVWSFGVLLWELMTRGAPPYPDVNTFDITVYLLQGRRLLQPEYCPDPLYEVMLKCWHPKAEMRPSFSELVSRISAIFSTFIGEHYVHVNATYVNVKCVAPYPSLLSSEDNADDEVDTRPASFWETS
For orientation: In an ELISA, binding on a coated surface is turned into a signal by an enzyme label.

Test [2] concerns the target T1, Met. The test can be described thus: Human Met kinase assay (33P radiometric, KinaseProfiler). It counts as biochemical. As to conditions: 10 μM ATP, read-out: c-Met IC50. The protocol: as §1
Human Met (residues R974-S1390 with A1209G and V1290L, 3.4 nM) was incubated with 8 mM MOPS pH 7.0, 0.2 mM EDTA, 250 μM KKKGQEEEYVFIE (SEQ ID NO. 45), 1 mM sodium orthovanadate, 5 mM […], 10 mM magnesium acetate, and 10 μM [γ-33P-ATP]. The reaction was initiated by the addition of the Mg/ATP mix. After incubation for 40 minutes at room temperature, the reaction was stopped by the addition of phosphoric acid to a concentration of 0.5%. A reaction aliquot of 10 μL was then spotted onto a P30 filtermat and washed four times for 4 minutes in 0.425% phosphoric acid and once in methanol prior to drying and scintillation counting. Incorporated 33P was measured using the Wallac Microbeta scintillation counter (Perkin Elmer).

Structures are written as SMILES.

As a reminder, the IC50 is the concentration at which inhibition is half-maximal.

Sequence of Human Axl (P30530 473-894 Q764R): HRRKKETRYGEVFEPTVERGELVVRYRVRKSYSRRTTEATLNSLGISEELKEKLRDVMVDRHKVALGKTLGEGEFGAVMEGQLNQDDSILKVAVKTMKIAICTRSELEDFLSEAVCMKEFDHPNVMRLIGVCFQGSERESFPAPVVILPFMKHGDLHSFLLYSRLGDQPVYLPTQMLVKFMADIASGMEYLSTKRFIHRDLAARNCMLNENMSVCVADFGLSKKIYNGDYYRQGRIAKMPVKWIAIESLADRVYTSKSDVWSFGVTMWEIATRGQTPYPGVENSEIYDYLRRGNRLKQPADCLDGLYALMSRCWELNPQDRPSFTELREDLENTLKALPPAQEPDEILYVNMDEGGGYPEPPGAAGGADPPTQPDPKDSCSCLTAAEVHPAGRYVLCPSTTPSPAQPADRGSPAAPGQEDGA
Sequence of AXL (P30530 26-894): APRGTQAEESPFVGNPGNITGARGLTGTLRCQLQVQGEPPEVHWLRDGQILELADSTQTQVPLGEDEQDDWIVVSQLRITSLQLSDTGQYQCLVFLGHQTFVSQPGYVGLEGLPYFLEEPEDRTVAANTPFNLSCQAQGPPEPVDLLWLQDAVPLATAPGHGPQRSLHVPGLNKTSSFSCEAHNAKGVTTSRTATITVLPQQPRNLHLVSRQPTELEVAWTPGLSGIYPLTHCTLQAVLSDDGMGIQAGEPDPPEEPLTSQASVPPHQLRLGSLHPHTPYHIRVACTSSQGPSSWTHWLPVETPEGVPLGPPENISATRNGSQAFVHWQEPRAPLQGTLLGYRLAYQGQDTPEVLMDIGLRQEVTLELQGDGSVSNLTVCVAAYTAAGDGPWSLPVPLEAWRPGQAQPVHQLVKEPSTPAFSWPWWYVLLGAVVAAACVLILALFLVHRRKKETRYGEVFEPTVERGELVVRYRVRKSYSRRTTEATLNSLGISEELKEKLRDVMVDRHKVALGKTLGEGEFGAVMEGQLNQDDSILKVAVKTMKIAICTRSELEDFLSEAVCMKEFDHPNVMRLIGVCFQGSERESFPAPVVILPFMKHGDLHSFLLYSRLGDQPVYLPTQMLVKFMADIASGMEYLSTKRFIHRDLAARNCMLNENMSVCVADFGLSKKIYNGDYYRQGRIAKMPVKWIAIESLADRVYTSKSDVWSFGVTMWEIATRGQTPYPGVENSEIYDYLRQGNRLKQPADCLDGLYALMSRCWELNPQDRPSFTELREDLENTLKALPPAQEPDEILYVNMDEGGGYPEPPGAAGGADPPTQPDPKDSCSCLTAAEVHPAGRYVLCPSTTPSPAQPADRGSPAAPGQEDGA

`CNC(=O)c1cc2c(Oc3ccc(NC(=O)C4(C(=O)Nc5ccc(F)cc5)CC4)cn3)ccnc2cc1OC` [Compound 17, 1-N-(4-Fluorophenyl)-1-N′-[6-[7-methoxy-6-(methylcarbamoyl)quinolin-4-yl]oxypyridin-3-yl]cyclopropane-1,1-dicarboxamide]: the IC50 against Human Axl lay within 10 to 100 nM; against AXL, 10 to 100 nM; at Met [1] it was 100 to 300 nM; on Met [2], 10 to 100 nM.
For the molecule `COc1cc2nccc(Oc3ccc(NC(=O)C4(C(=O)Nc5ccc(F)cc5)CC4)cn3)c2cc1C(N)=O` [Compound 16, 1-N′-[6-(6-Carbamoyl-7-methoxyquinolin-4-yl)oxypyridin-3-yl]-1-N-(4-fluorophenyl)-cyclopropane-1,1-dicarboxamide], the concentration for half-maximal inhibition (IC50) against Human Axl was 10 to 100 nM; against AXL it was 10 to 100 nM; on Met [1], 100 to 300 nM; on Met [2], ≤ 10 nM.
In the case of `COc1cc2nccc(Oc3ncc(NC(=O)C4(C(=O)Nc5ccc(F)cc5)CC4)cc3F)c2nc1OC` [Compound 82, 1-N′-[6-[(6,7-Dimethoxy-1,5-naphthyridin-4-yl)oxy]-5-fluoropyridin-3-yl]-1-N-(4-fluorophenyl)cyclopropane-1,1-dicarboxamide], the half-inhibitory concentration (IC50) on Human Axl is ≤ 10 nM; on AXL it was 10 to 100 nM; on Met [1], 10 to 100 nM; at Met [2] it was ≤ 10 nM.
For `COc1cc2nccc(Oc3ccc(NC(=O)C4(C(=O)Nc5ccc(F)cc5)CC4)cn3)c2cc1-c1cn[nH]c1` [Compound 60, 1-N-(4-Fluorophenyl)-1-N′-[6-[7-methoxy-6-(1H-pyrazol-4-yl)quinolin-4-yl]oxypyridin-3-yl]cyclopropane-1,1-dicarboxamide], the concentration for half-maximal inhibition (IC50) against Human Axl is ≤ 10 nM; against AXL, 10 to 100 nM; on Met [1], 10 to 100 nM; at Met [2] it was ≤ 10 nM.
Take `COc1cc2nccc(Oc3ccc(NC(=O)C4(C(=O)Nc5ccc(F)cc5)CC4)cn3)c2nc1OC` [Compound 81, 1-N′-[6-[(6,7-Dimethoxy-1,5-naphthyridin-4-yl)oxy]pyridin-3-yl]-1-N-(4-fluorophenyl)cyclopropane-1,1-dicarboxamide]: the 50% inhibitory concentration (IC50) on Human Axl lay within 10 to 100 nM; against AXL, 100 to 300 nM; at Met [1], 100 to 300 nM; on Met [2], 10 to 100 nM.
For `COC(=O)c1cc2c(Oc3ncc(NC(=O)C4(C(=O)Nc5ccc(F)cc5)CC4)cc3Cl)ccnc2cc1OC` [Compound 11, Methyl 4-[3-chloro-5-[[1-[(4-fluorophenyl)carbamoyl]cyclopropanecarbonyl]-amino]pyridin-2-yl]oxy-7-methoxyquinoline-6-carboxylate], the IC50 is ≤ 10 nM against Human Axl, 10 to 100 nM against AXL, 10 to 100 nM at Met [1] and ≤ 10 nM on Met [2].
For `COc1cc2nccc(Oc3ncc(NC(=O)C4(C(=O)Nc5ccc(F)cc5)CC4)cc3Cl)c2cc1C(N)=O` [Compound 18, 1-N′-[6-(6-Carbamoyl-7-methoxyquinolin-4-yl)oxy-5-chloropyridin-3-yl]-1-N-(4-fluorophenyl)cyclopropane-1,1-dicarboxamide], the IC50 is ≤ 10 nM against Human Axl, ≤ 10 nM on AXL, 10 to 100 nM on Met [1] and ≤ 10 nM on Met [2].
Consider `COc1cc2nccc(Oc3ncc(NC(=O)C4(C(=O)Nc5ccc(F)cc5)CC4)cc3Cl)c2nc1OC` [Compound 80, 1-N′-[5-Chloro-6-[(6,7-dimethoxy-1,5-naphthyridin-4-yl)oxy]pyridin-3-yl]-1-N-(4-fluorophenyl)cyclopropane-1,1-dicarboxamide], for which the half-maximal inhibitory concentration (IC50) is 10 to 100 nM at Human Axl, 100 to 300 nM against AXL, 10 to 100 nM at Met [1] and 10 to 100 nM at Met [2].
For the molecule `COC(=O)c1cc2c(Oc3ccc(NC(=O)C4(C(=O)Nc5ccc(F)cc5)CC4)cn3)ccnc2cc1OC` [Compound 10, Methyl 4-[5-[[1-[(4-fluorophenyl)carbamoyl]cyclopropanecarbonyl]-amino]pyridin-2-yl]oxy-7-methoxyquinoline-6-carboxylate], the IC50 was ≤ 10 nM on Human Axl, 10 to 100 nM at AXL, 100 to 300 nM on Met [1] and ≤ 10 nM at Met [2].
